Target: GsTyDC/DDC (Gloriosa superba, UniProt A0A7D5Q853)
Type: cell-based
Settings: leaves of N. benthamiana

Q: Which “LC-MS, transient expression in N. benthamiana” value does the source give for `N[C@@H](Cc1ccc(O)c(O)c1)C(=O)O` [L-DOPA] here?
A: GsTyDC/DDC is capable of acting on act on either L-Tyr or L-DOPA (Figure S15)

— paper PMC10824269 (Journal of the American Chemical Society, 2021)
